US20060079503A1, “Thiazolidinones and the use therof as polo-like kinase inhibitors” (SCHERING AKTIENGESELLSCHAFT, priority 2002, published 2006)

biological target: T1, Recombinant human Plk-1 (6×His) (Homo sapiens, UniProt P53350); assay: PLK enzyme assay (33P-γ-ATP incorporation into biotinylated casein, SPA beads); assay type: biochemical; conditions: 10 ng PLK enzyme, 90 minutes at room temperature, 0.5 μmol of ATP, casein substrate; read-out: Inhibition of PLK-1 IC50
T1 construct: 6×His; made in house; host or cells: baculovirus-infected insect cells (Hi5)
Procedure: Recombinant human Plk-1 (6×His) was purified from baculovirus-infected insect cells (Hi5).
10 ng of (produced in a recombinant manner and purified) PLK enzyme is incubated for 90 minutes at room temperature with biotinylated casein and 33P-γ-ATP as a substrate in a volume of 15 μl in 384-well Greiner small-volume microtiter plates (final concentrations in the buffer: 660 ng/ml of PLK; 0.7 μmol of casein, 0.5 μmol of ATP incl. 400 nCi/ml of 33P-γ-ATP; 10 mmol of MgCl2, 1 mmol of MnCl2; 0.01% NP40; 1 mmol of DTT, protease inhibitors; 0.1 mmol of Na2VO3 in 50 mmol of HEPES, pH 7.5). To complete the reaction, 5 μl of stop solution (500 μmol of ATP; 500 mmol of EDTA; 1% Triton X100; 100 mg/ml of streptavidin-coated SPA beads in PBS) is added. After the microtiter plate is sealed by film, the beads are sedimented by centrifuging (10 minutes, 1500 rpm). The incorporation of 33P-γ-ATP in casein is intended as a measurement of enzyme activity by β-counting.
Test substances are used in various concentrations (0 μmol, as well as in the range of 0.01-30 μmol). The final concentration of the solvent dimethyl sulfoxide is 1.5% in all batches.

T1 sequence (P53350 whole entry): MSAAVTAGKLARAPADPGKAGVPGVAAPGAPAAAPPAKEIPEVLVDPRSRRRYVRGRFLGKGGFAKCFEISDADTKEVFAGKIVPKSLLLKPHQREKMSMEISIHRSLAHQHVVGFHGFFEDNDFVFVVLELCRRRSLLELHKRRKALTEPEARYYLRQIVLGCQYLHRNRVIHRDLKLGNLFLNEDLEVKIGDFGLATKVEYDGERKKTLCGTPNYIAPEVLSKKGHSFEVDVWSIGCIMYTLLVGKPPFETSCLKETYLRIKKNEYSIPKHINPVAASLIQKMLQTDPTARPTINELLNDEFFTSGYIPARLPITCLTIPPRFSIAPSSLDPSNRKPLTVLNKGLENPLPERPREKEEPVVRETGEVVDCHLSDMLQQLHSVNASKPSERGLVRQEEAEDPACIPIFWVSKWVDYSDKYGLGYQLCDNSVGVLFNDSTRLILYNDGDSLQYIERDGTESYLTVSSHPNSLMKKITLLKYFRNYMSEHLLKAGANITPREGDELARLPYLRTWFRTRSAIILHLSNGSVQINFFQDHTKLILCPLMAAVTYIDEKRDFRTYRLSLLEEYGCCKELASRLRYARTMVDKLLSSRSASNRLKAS

Going from `CCn1c(=C(C#N)C(=O)O)sc(=CNc2ccccc2)c1=O` (mixture of isomers) [Example 12, (E or Z)-Cyano-(3-ethyl-4-oxo-5-(E/Z)-phenylaminomethylene-thiazolidin-2-ylidene)-acetic acid] to `CCn1c(=CC#N)sc(=CNc2ccccc2)c1=O` (mixture of isomers) [Example 21, (E or Z)-(3-Ethyl-4-oxo-5-(E/Z)-phenylaminomethylene-thiazolidin-2-ylidene)-acetonitrile], the IC50 rises from 100 nM to 230 nM (2.3-fold). The first is the more potent here.

Going from `CCOC(=O)C(C#N)=c1sc(=CNc2cccc(NC(C)=O)c2)c(=O)n1CC` [Example 59] to `CCOC(=O)C(C#N)=c1sc(=CNc2ccc(NC(C)=O)cc2)c(=O)n1CC` [Example 58], the IC50 rises from 180 nM to 270 nM (1.5-fold). The first is the more potent here.

`CCOC(=O)C(C#N)=c1sc(=CN)c(=O)n1CC` (mixture of isomers) [Example 11, (E or Z)-(5-(E/Z)-Aminomethylene-3-ethyl-4-oxo-thiazolidin-2-ylidene)-cyanoacetic acid ethyl ester] and `CCOC(=O)C(C#N)=c1sc(=CNc2cccc(C(N)=O)c2)c(=O)n1CC` [Example 48] are within 1.5-fold of each other in IC50: 400 nM for the first, 270 nM for the second.

`CCOC(=O)C(C#N)=c1sc(=CNc2cccc(C(=O)O)c2)c(=O)n1CC` [Example 24] and `CCOC(=O)C(C#N)=c1sc(=CNc2cccc(C(=O)NC)c2)c(=O)n1CC` [Example 52] are within 1.5-fold of each other in IC50: 230 nM for the first, 260 nM for the second.

Going from `CCOC(=O)C(C#N)=c1sc(=CNc2ccc(C(=O)O)cc2C)c(=O)n1CC` [Example 40] to `CCOC(=O)C(C#N)=c1sc(=CNc2ccc(C(=O)O)cc2O)c(=O)n1CC` [Example 30], the IC50 falls from 1700 nM to 250 nM (6.8-fold).

First: CCOC(=O)C(C#N)=c1sc(=CNc2cccc(S(N)(=O)=O)c2)c(=O)n1CC [Example 53]
Second: CCOC(=O)C(C#N)=c1sc(=CNc2ccc(S(N)(=O)=O)cc2)c(=O)n1CC [Example 50]
The IC50 of the first is 1.9-fold higher: 460 nM for the first, 240 nM for the second. The second is the more potent here.

First: CCOC(=O)C(C#N)=c1sc(=CNc2ccc(C)cc2C(=O)O)c(=O)n1CC [Example 38]
Second: CCOC(=O)C(C#N)=c1sc(=CNc2ccc(Br)cc2C(=O)O)c(=O)n1CC [Example 36]
The IC50 of the first is 1.7-fold higher: 3000 nM for the first, 1800 nM for the second. The second is the more potent here.

`CCOC(=O)C(C#N)=c1sc(=CNc2cc(F)c(F)cc2C(=O)O)c(=O)n1CC` [Example 37] and `CCOC(=O)C(C#N)=c1sc(=CNc2ccc(F)cc2C(=O)O)c(=O)n1CC` [Example 35] are within 1.5-fold of each other in IC50: 3500 nM for the first, 2800 nM for the second.

Compared with `CCOC(=O)C(C#N)=c1sc(=CNC(=O)Nc2ccccc2)c(=O)n1CC` [Example 45], `CCOC(=O)C(C#N)=c1sc(=CNc2ccccc2C(=O)O)c(=O)n1CC` [Example 26] is 9.3-fold higher in IC50: 680 nM for the first, 6300 nM for the second.

`CCOC(=O)C(C#N)=c1sc(=CNc2cc(Cl)ccc2C(=O)O)c(=O)n1CC` [Example 32] and `CCOC(=O)C(C#N)=c1sc(=CNc2ccc(Cl)cc2C(=O)O)c(=O)n1CC` [Example 31] are within 1.5-fold of each other in IC50: 1700 nM for the first, 1900 nM for the second.

`CCOC(=O)C(C#N)=c1sc(=CNc2cccc(CO)c2)c(=O)n1CC` [Example 60] and `CCOC(=O)C(C#N)=c1sc(=CNc2ccc(Cl)c(C(=O)O)c2)c(=O)n1CC` [Example 33] are within 1.5-fold of each other in IC50: 290 nM for the first, 420 nM for the second.

First: CCOC(=O)C(C#N)=c1sc(=CNc2cc(C(=O)O)ccc2O)c(=O)n1CC [Example 28]
Second: CCOC(=O)C(C#N)=c1sc(=CNc2cccc(C)c2C(=O)O)c(=O)n1CC [Example 39]
The IC50 of the first is 2.6-fold lower: 2300 nM for the first, 5900 nM for the second.

Going from `CCOC(=O)C(C#N)=c1sc(=CNc2ccc(C(N)=O)cc2)c(=O)n1CC` (mixture of isomers) [Example 10, (E or Z)-{5-(E/Z)-[(4-Carbamoyl-phenylamino)-methylene]-3-ethyl-4-oxo-thiazolidin-2-ylidene}-cyanoacetic acid ethyl ester] to `CCOC(=O)C(C#N)=c1sc(=CNc2ccc(S(C)(=O)=O)cc2)c(=O)n1CC` [Example 22], the IC50 rises from 200 nM to 510 nM (2.5-fold). The first is the more potent here.

tested on: human MaTu breast tumor cells; assay: Proliferation assay (crystal violet staining); assay type: cell-based; conditions: 96 h, incubated for 4 days with test substances, read-out: Inhibition of the Tumor Cell Proliferation (MaTu) IC50
Procedure: Cultivated human MaTu breast tumor cells were flattened out at a density of 5000 cells/measuring point in a 96-well multititer plate in […] of the corresponding growth medium. After 24 hours, the cells of one plate (zero-point plate) were colored with crystal violet (see below), while the medium of the other plates was replaced by fresh culture medium […], to which the test substances were added in various concentrations (0 μm, as well as in the range of 0.01-30 μm; the final concentration of the solvent dimethyl sulfoxide was 0.5%). The cells were incubated for 4 days in the presence of test substances. The cell proliferation was determined by coloring the cells with crystal violet: the cells were fixed by adding 20 μl/measuring point of an 11% glutaric aldehyde solution for 15 minutes at room temperature. After three washing cycles of the fixed cells with water, the plates were dried at room temperature. The cells were colored by adding 100 μl/measuring point of a 0.1% crystal violet solution (pH was set at 3 by adding acetic acid). After three washing cycles of the colored cells with water, the plates were dried at room temperature. The dye was dissolved by adding 100 μl/measuring point of a 10% acetic acid solution. The extinction was determined by photometry at a wavelength of 595 nm. The change of cell growth, in percent, was calculated by standardization of the measured values to the extinction values of the zero-point plate (=0%) and the extinction of the untreated (0 μm) cells (=100%).

Going from `CCn1c(=C(C#N)C(=O)O)sc(=CNc2ccccc2)c1=O` (mixture of isomers) [Example 12, (E or Z)-Cyano-(3-ethyl-4-oxo-5-(E/Z)-phenylaminomethylene-thiazolidin-2-ylidene)-acetic acid] to `CCOC(=O)C(C#N)=c1sc(=CNc2ccc(C(N)=O)cc2)c(=O)n1CC` (mixture of isomers) [Example 10, (E or Z)-{5-(E/Z)-[(4-Carbamoyl-phenylamino)-methylene]-3-ethyl-4-oxo-thiazolidin-2-ylidene}-cyanoacetic acid ethyl ester], the IC50 rises from 2000 nM to 4000 nM (2-fold). The first is the more potent here.

In the case of `CCOC(=O)C(C#N)=c1sc(=CN)c(=O)n1CC` (mixture of isomers) [Example 11, (E or Z)-(5-(E/Z)-Aminomethylene-3-ethyl-4-oxo-thiazolidin-2-ylidene)-cyanoacetic acid ethyl ester], the IC50 is reported as 15000 nM.
